Laboratory results as given in US10736883B2, “Triazole furan compounds as agonists of the APJ receptor” (AMGEN INC., priority 2016, dated 2020).

Molecular target: APJ receptor (Homo sapiens (Human), UniProt P35414)
Assay: [35S]GTPγS binding assay on membranes from CHO cells stably expressing human APJ receptor
Format: biochemical
Conditions: membranes of CHO cells stably expressing human APJ receptor, means of several independent experiments, read-out: Activity hAPJ SPA EC50 IP
Summary of the method: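 EC50 values were obtained by non-linear regression of [35S]GTPγS (0.2 nM) binding after 90 min at RT, with nonspecific binding defined by 100 μM GTPγS. Reactions used human APJ–expressing CHO cell membranes on WGA PS beads in HEPES pH 7.5 buffer with 5 mM MgCl2, 200 mM NaCl, 3 μM GDP and 0.1% BSA.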

Sequence of APJ receptor (P35414 whole entry): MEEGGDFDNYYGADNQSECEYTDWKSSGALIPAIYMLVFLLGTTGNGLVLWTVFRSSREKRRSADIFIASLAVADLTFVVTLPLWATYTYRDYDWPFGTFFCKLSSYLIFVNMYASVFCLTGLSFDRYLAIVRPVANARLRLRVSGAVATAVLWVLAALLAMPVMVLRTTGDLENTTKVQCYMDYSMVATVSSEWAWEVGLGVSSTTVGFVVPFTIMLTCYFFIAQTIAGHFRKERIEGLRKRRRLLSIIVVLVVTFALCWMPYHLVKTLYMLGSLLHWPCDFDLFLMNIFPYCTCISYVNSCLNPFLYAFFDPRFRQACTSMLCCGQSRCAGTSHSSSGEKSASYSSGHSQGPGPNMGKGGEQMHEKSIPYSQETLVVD

EC50 [nM] | Compound
0.2 | COc1cccc(OC)c1-n1c(NS(=O)(=O)[C@H]2C[C@@H](O)CN(c3ncc(F)cn3)C2)nnc1-c1ccc(C)o1 (single isomer, unassigned) [Example 323.0, (3S,5R)—N-(4-(2,6-Dimethoxyphenyl)-5-(5-methyl-2-furanyl)-4H-1,2,4-triazol-3-yl)-1-(5-fluoro-2-pyrimidinyl)-5-hydroxy-3-piperidinesulfonamide or (3R,5S)—N-(4-(2,6-dimethoxyphenyl)-5-(5-methyl-2-furanyl)-4H-1,2,4-triazol-3-yl)-1-(5-fluoro-2-pyrimidinyl)-5-hydroxy-3-piperidinesulfonamide]
0.25 | COc1ccnc(N2C[C@H](O)C[C@H](S(=O)(=O)Nc3nnc(-c4ccc(C)o4)n3-c3c(OC)cccc3OC)C2)n1 (single isomer, unassigned) [Example 327.0, (3S,5R)—N-(4-(2,6-Dimethoxyphenyl)-5-(5-methyl-2-furanyl)-4H-1,2,4-triazol-3-yl)-5-hydroxy-1-(4-methoxy-2-pyrimidinyl)-3-piperidinesulfonamide or (3R,5S)—N-(4-(2,6-dimethoxyphenyl)-5-(5-methyl-2-furanyl)-4H-1,2,4-triazol-3-yl)-5-hydroxy-1-(4-methoxy-2-pyrimidinyl)-3-piperidinesulfonamide]
0.55 | COc1cccc(OC)c1-n1c(NS(=O)(=O)[C@H]2C[C@@H](O)CN(c3nc(C)cc(C)n3)C2)nnc1-c1ccc(C)o1 (single isomer, unassigned) [Example 336.0, (3S,5R)—N-(4-(2,6-Dimethoxyphenyl)-5-(5-methylfuran-2-yl)-4H-1,2,4-triazol-3-yl)-1-(4,6-dimethylpyrimidin-2-yl)-5-hydroxypiperidine-3-sulfonamide or (3R,5S)—N-(4-(2,6-dimethoxyphenyl)-5-(5-methylfuran-2-yl)-4H-1,2,4-triazol-3-yl)-1-(4,6-dimethylpyrimidin-2-yl)-5-hydroxypiperidine-3-sulfonamide]
1.3 | COc1cccc(OC)c1-n1c(NS(=O)(=O)[C@H]2C[C@@H](O)CN(C(=O)N(C)C)C2)nnc1-c1ccc(C)o1 (single isomer, unassigned) [Example 337.0, (3S,5R)-3-(N-(4-(2,6-Dimethoxyphenyl)-5-(5-methylfuran-2-yl)-4H-1,2,4-triazol-3-yl)sulfamoyl)-5-hydroxy-N,N-dimethylpiperidine-1-carboxamide or (3R,5S)-3-(N-(4-(2,6-dimethoxyphenyl)-5-(5-methylfuran-2-yl)-4H-1,2,4-triazol-3-yl)sulfamoyl)-5-hydroxy-N,N-dimethylpiperidine-1-carboxamide]
62 | COc1cccc(OC)c1-n1c(NS(=O)(=O)[C@H]2CCCN(S(=O)(=O)C(C)C)C2)nnc1-c1ccco1 (single isomer, unassigned) [Example 339.0, (S)—N-(4-(2,6-Dimethoxyphenyl)-5-(furan-2-yl)-4H-1,2,4-triazol-3-yl)-1-(isopropylsulfonyl)piperidine-3-sulfonamide or (R)—N-(4-(2,6-dimethoxyphenyl)-5-(furan-2-yl)-4H-1,2,4-triazol-3-yl)-1-(isopropylsulfonyl)piperidine-3-sulfonamide]

More lines, now with the values behind:

Compound | EC50 [nM]
COc1cccc(OC)c1-n1c(NS(=O)(=O)[C@H](C)[C@@H](O)c2nccn2C)nnc1-c1ccc(C)o1 (single isomer, unassigned) [Example 297.0, (1S,2R)—N-(4-(2,6-Dimethoxyphenyl)-5-(5-methyl-2-furanyl)-4H-1,2,4-triazol-3-yl)-1-hydroxy-1-(1-methyl-1H-imidazol-2-yl)-2-propanesulfonamide or (1R,2S)—N-(4-(2,6-dimethoxyphenyl)-5-(5-methyl-2-furanyl)-4H-1,2,4-triazol-3-yl)-1-hydroxy-1-(1-methyl-1H-imidazol-2-yl)-2-propanesulfonamide] | 8.8
COc1cccc(OC)c1-n1c(NS(=O)(=O)[C@H](C)[C@H](O)c2cscn2)nnc1-c1ccc(C)o1 (single isomer, unassigned) [Example 298.0, (1R,2R)—N-(4-(2,6-Dimethoxyphenyl)-5-(5-methyl-2-furanyl)-4H-1,2,4-triazol-3-yl)-1-hydroxy-1-(1,3-thiazol-4-yl)-2-propanesulfonamide or (1S,2S)—N-(4-(2,6-dimethoxyphenyl)-5-(5-methyl-2-furanyl)-4H-1,2,4-triazol-3-yl)-1-hydroxy-1-(1,3-thiazol-4-yl)-2-propanesulfonamide] | 11
COc1cccc(OC)c1-n1c(NS(=O)(=O)[C@@H](C)[C@H](O)c2cccc3nccn23)nnc1-c1ccc(C)o1 (single isomer, unassigned) [Example 299.0, (1R,2S)—N-(4-(2,6-Dimethoxyphenyl)-5-(5-methyl-2-furanyl)-4H-1,2,4-triazol-3-yl)-1-hydroxy-1-imidazo[1,2-a]pyridin-5-yl-2-propanesulfonamide or (1S,2R)—N-(4-(2,6-dimethoxyphenyl)-5-(5-methyl-2-furanyl)-4H-1,2,4-triazol-3-yl)-1-hydroxy-1-imidazo[1,2-a]pyridin-5-yl-2-propanesulfonamide] | 11
COc1cccc(OC)c1-n1c(NS(=O)(=O)[C@H](C)[C@@H](O)c2coc(C)n2)nnc1-c1ccc(C)o1 (single isomer, unassigned) [Example 303.0, (1R,2S)—N-(4-(2,6-Dimethoxyphenyl)-5-(5-methyl-2-furanyl)-4H-1,2,4-triazol-3-yl)-1-hydroxy-1-(2-methyl-1,3-oxazol-4-yl)-2-propanesulfonamide or (1S,2R)—N-(4-(2,6-dimethoxyphenyl)-5-(5-methyl-2-furanyl)-4H-1,2,4-triazol-3-yl)-1-hydroxy-1-(2-methyl-1,3-oxazol-4-yl)-2-propanesulfonamide] | 13
COc1cccc(OC)c1-n1c(NS(=O)(=O)[C@@H](C)[C@@H](O)c2cc3ccccn3n2)nnc1-c1ccc(C)o1 (single isomer, unassigned) [Example 304.0, (1S,2S)—N-(4-(2,6-Dimethoxyphenyl)-5-(5-methyl-2-furanyl)-4H-1,2,4-triazol-3-yl)-1-hydroxy-1-pyrazolo[1,5-a]pyridin-2-yl-2-propanesulfonamide or (1R,2R)—N-(4-(2,6-dimethoxyphenyl)-5-(5-methyl-2-furanyl)-4H-1,2,4-triazol-3-yl)-1-hydroxy-1-pyrazolo[1,5-a]pyridin-2-yl-2-propanesulfonamide] | 16
COc1cccc(OC)c1-n1c(NS(=O)(=O)[C@H](C)[C@@H](O)c2cscn2)nnc1-c1ccc(C)o1 (single isomer, unassigned) [Example 307.0, (1S,2R)—N-(4-(2,6-Dimethoxyphenyl)-5-(5-methyl-2-furanyl)-4H-1,2,4-triazol-3-yl)-1-hydroxy-1-(1,3-thiazol-4-yl)-2-propanesulfonamide or (1R,2S)—N-(4-(2,6-dimethoxyphenyl)-5-(5-methyl-2-furanyl)-4H-1,2,4-triazol-3-yl)-1-hydroxy-1-(1,3-thiazol-4-yl)-2-propanesulfonamide] | 28
COc1cccc(OC)c1-n1c(NS(=O)(=O)[C@@H](C)[C@@H](O)c2cn3ccccc3n2)nnc1-c1ccc(C)o1 (single isomer, unassigned) [Example 308.0, (1S,2S)—N-(4-(2,6-Dimethoxyphenyl)-5-(5-methyl-2-furanyl)-4H-1,2,4-triazol-3-yl)-1-hydroxy-1-imidazo[1,2-a]pyridin-2-yl-2-propanesulfonamide or (1R,2R)—N-(4-(2,6-dimethoxyphenyl)-5-(5-methyl-2-furanyl)-4H-1,2,4-triazol-3-yl)-1-hydroxy-1-imidazo[1,2-a]pyridin-2-yl-2-propanesulfonamide] | 33
COc1cccc(OC)c1-n1c(NS(=O)(=O)[C@H](C)[C@H](O)c2cscn2)nnc1-c1ccc(C)o1 (single isomer, unassigned) [Example 309.0, (1S,2S)—N-(4-(2,6-Dimethoxyphenyl)-5-(5-methyl-2-furanyl)-4H-1,2,4-triazol-3-yl)-1-hydroxy-1-(1,3-thiazol-4-yl)-2-propanesulfonamide or (1R,2R)—N-(4-(2,6-dimethoxyphenyl)-5-(5-methyl-2-furanyl)-4H-1,2,4-triazol-3-yl)-1-hydroxy-1-(1,3-thiazol-4-yl)-2-propanesulfonamide] | 61
COc1cccc(OC)c1-n1c(NS(=O)(=O)[C@@H](C)C2(O)COC2)nnc1-c1ccc(C)o1 (single isomer, unassigned) [Example 311.0, (1S)—N-(4-(2,6-Dimethoxyphenyl)-5-(5-methyl-2-furanyl)-4H-1,2,4-triazol-3-yl)-1-(3-hydroxy-3-oxetanyl)ethanesulfonamide or (1R)—N-(4-(2,6-dimethoxyphenyl)-5-(5-methyl-2-furanyl)-4H-1,2,4-triazol-3-yl)-1-(3-hydroxy-3-oxetanyl)ethanesulfonamide] | 190
COc1cccc(OC)c1-n1c(NS(=O)(=O)[C@H]2C[C@@H](O)CN(c3cncc(C#N)n3)C2)nnc1-c1ccc(C)o1 (single isomer, unassigned) [Example 321.0, (3S,5R)-1-(6-Cyano-2-pyrazinyl)-N-(4-(2,6-dimethoxyphenyl)-5-(5-methyl-2-furanyl)-4H-1,2,4-triazol-3-yl)-5-hydroxy-3-piperidinesulfonamide or (3R,5S)-1-(6-cyano-2-pyrazinyl)-N-(4-(2,6-dimethoxyphenyl)-5-(5-methyl-2-furanyl)-4H-1,2,4-triazol-3-yl)-5-hydroxy-3-piperidinesulfonamide] | 0.18
COc1cccc(OC)c1-n1c(NS(=O)(=O)[C@H]2C[C@@H](O)CN(c3cncc(C#N)c3)C2)nnc1-c1ccc(C)o1 (single isomer, unassigned) [Example 325.0, (3S,5R)-1-(5-Cyano-3-pyridinyl)-N-(4-(2,6-dimethoxyphenyl)-5-(5-methyl-2-furanyl)-4H-1,2,4-triazol-3-yl)-5-hydroxy-3-piperidinesulfonamide or (3R,5S)-1-(5-cyano-3-pyridinyl)-N-(4-(2,6-dimethoxyphenyl)-5-(5-methyl-2-furanyl)-4H-1,2,4-triazol-3-yl)-5-hydroxy-3-piperidinesulfonamide] | 0.23
